# Numbered stars: 1 amine (or outer) side, 2 acyl side, 3 side chain; on linkers, the order of the positions; unused ones are H or OH. Square brackets hold non-standard residues; d marks the D form. Side chains are listed from the residue outwards. Peptide text beside a SMILES is read from it. * marks the point of attachment. C18 diacid = O=C(O)CCCCCCCCCCCCCCCCC(=O)*; γGlu = O=C(O)[C@H](CCC(=O)[*:2])N[*:1]; dAbu = CC[C@@H](N)C(=O)O; Abu = CC[C@H](N)C(=O)O; AEEA = NCCOCCOCC(=O)O
# Molecular target: human GLP-1R (Homo sapiens, UniProt P43220)
# Sequence (P43220 24-463): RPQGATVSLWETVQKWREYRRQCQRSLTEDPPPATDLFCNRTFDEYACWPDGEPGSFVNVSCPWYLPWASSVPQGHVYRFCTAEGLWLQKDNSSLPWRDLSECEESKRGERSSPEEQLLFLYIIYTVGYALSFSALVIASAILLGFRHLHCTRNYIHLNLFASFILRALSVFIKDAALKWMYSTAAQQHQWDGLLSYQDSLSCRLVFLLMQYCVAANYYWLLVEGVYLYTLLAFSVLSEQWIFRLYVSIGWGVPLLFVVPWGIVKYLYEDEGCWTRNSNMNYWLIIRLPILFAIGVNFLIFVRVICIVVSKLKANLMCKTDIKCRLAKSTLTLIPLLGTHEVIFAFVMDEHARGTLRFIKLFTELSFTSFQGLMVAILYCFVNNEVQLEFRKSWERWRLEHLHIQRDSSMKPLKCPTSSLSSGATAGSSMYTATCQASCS
# Experiment: cAMP signal analysis of GLP-1R (GLP-1 receptor agonist activity)
# Format: cell-based
# Settings: not given
# Protocol: A wild human GLP-1R (NM_002062.5) was subjected to transient transfection and screened for two weeks by 600 μg/ml of hygromycin-B to obtain a cell line which was recombined and integrated into an FlpInCHO (Invitrogen) cell stable expression system. The culture condition of the FlpInCHO cell was as follows: 10% of heat-inactivated fetal calf serum was added to a DMEM culture solution, and the culture was performed in a 5% carbon dioxide cell incubator.
# In the test, an LANCE cAMP detection kit was used for measuring the cAMP signal intensity.
row,Structure (SMILES),EC50
1,CC[C@H](C)[C@H](NC(=O)[C@H](Cc1ccccc1)NC(=O)[C@H](CCC(=O)O)NC(=O)[C@H](CCCCNC(=O)COCCOCCNC(=O)COCCOCCNC(=O)CC[C@H](NC(=O)CCCCCCCCCCCCCCCCC(=O)O)C(=O)O)NC(=O)[C@H](C)NC(=O)[C@H](C)NC(=O)[C@H](CCC(N)=O)NC(=O)[C@@H]1CCCN1C(=O)[C@H](CCC(=O)O)NC(=O)[C@H](CC(C)C)NC(=O)[C@H](Cc1ccc(O)cc1)NC(=O)[C@H](CO)NC(=O)[C@H](CO)NC(=O)[C@@H](NC(=O)[C@H](CC(=O)O)NC(=O)[C@H](CO)NC(=O)[C@@H](NC(=O)[C@H](Cc1ccccc1)NC(=O)[C@@H](NC(=O)CNC(=O)[C@H](CCC(=O)O)NC(=O)[C@@H]1CCCN1C(=O)[C@@H](N)Cc1c[nH]cn1)[C@@H](C)O)[C@@H](C)O)C(C)C)C(=O)N[C@@H](C)C(=O)N[C@@H](Cc1c[nH]c2ccccc12)C(=O)N[C@@H](CC(C)C)C(=O)N[C@H](C(=O)N[C@@H](CCCNC(=N)N)C(=O)NCC(=O)N[C@@H](CCCNC(=N)N)C(=O)NCC(=O)O)C(C)C [NO: 17],3.32 ± 0.677 nM
2,CC[C@H](C)[C@H](NC(=O)[C@H](Cc1ccccc1)NC(=O)[C@H](CCC(=O)O)NC(=O)[C@H](CCCCNC(=O)COCCOCCNC(=O)COCCOCCNC(=O)CC[C@H](NC(=O)CCCCCCCCCCCCCCCCC(=O)O)C(=O)O)NC(=O)[C@H](C)NC(=O)[C@H](C)NC(=O)[C@H](CCC(N)=O)NC(=O)CNC(=O)[C@H](CCC(=O)O)NC(=O)[C@H](CC(C)C)NC(=O)[C@H](Cc1ccc(O)cc1)NC(=O)[C@H](CO)NC(=O)[C@H](CO)NC(=O)[C@@H](NC(=O)[C@H](CC(=O)O)NC(=O)[C@H](CO)NC(=O)[C@@H](NC(=O)[C@H](Cc1ccccc1)NC(=O)[C@@H](NC(=O)CNC(=O)[C@H](CCC(=O)O)NC(=O)[C@@H]1CCCN1C(=O)[C@@H](N)Cc1c[nH]cn1)[C@@H](C)O)[C@@H](C)O)C(C)C)C(=O)N[C@@H](C)C(=O)N[C@@H](Cc1c[nH]c2ccccc12)C(=O)N[C@@H](CC(C)C)C(=O)N[C@H](C(=O)N[C@@H](CCCNC(=N)N)C(=O)NCC(=O)N[C@@H](CCCNC(=N)N)C(=O)NCC(=O)O)C(C)C [NO: 18],3.12 ± 0.512 nM
3,CC[C@H](C)[C@H](NC(=O)[C@H](Cc1ccccc1)NC(=O)[C@H](CCC(=O)O)NC(=O)[C@H](CCCCNC(=O)COCCOCCNC(=O)COCCOCCNC(=O)CC[C@H](NC(=O)CCCCCCCCCCCCCCCCC(=O)O)C(=O)O)NC(=O)[C@H](C)NC(=O)[C@H](C)NC(=O)[C@H](CCC(N)=O)NC(=O)CNC(=O)[C@H](CCC(=O)O)NC(=O)[C@H](CC(C)C)NC(=O)[C@H](Cc1ccc(O)cc1)NC(=O)[C@H](CO)NC(=O)[C@H](CO)NC(=O)[C@@H](NC(=O)[C@H](CC(=O)O)NC(=O)[C@H](CO)NC(=O)[C@@H](NC(=O)[C@H](Cc1ccccc1)NC(=O)[C@@H](NC(=O)CNC(=O)[C@H](CCC(=O)O)NC(=O)[C@@](C)(CC(F)(F)F)NC(=O)[C@@H](N)Cc1c[nH]cn1)[C@@H](C)O)[C@@H](C)O)C(C)C)C(=O)N[C@@H](C)C(=O)N[C@@H](Cc1c[nH]c2ccccc12)C(=O)N[C@@H](CC(C)C)C(=O)N[C@H](C(=O)N[C@@H](CCCNC(=N)N)C(=O)NCC(=O)N[C@@H](CCCNC(=N)N)C(=O)NCC(=O)O)C(C)C [NO: 20],0.693 ± 0.0557 nM
4,CC[C@H](C)[C@H](NC(=O)[C@H](Cc1ccccc1)NC(=O)[C@H](CCC(=O)O)NC(=O)[C@H](CCCCNC(=O)COCCOCCNC(=O)COCCOCCNC(=O)CC[C@H](NC(=O)CCCCCCCCCCCCCCCCC(=O)O)C(=O)O)NC(=O)[C@H](C)NC(=O)[C@H](C)NC(=O)[C@H](CCC(N)=O)NC(=O)CNC(=O)[C@H](CCC(=O)O)NC(=O)[C@H](CC(C)C)NC(=O)[C@H](Cc1ccc(O)cc1)NC(=O)[C@H](CO)NC(=O)[C@H](CO)NC(=O)[C@@H](NC(=O)[C@H](CC(=O)O)NC(=O)[C@H](CO)NC(=O)[C@@H](NC(=O)[C@H](Cc1ccccc1)NC(=O)[C@@H](NC(=O)CNC(=O)[C@H](CCC(=O)O)NC(=O)[C@](C)(NC(=O)[C@@H](N)Cc1c[nH]cn1)C(F)(F)C(F)(F)F)[C@@H](C)O)[C@@H](C)O)C(C)C)C(=O)N[C@@H](C)C(=O)N[C@@H](Cc1c[nH]c2ccccc12)C(=O)N[C@@H](CC(C)C)C(=O)N[C@H](C(=O)N[C@@H](CCCNC(=N)N)C(=O)NCC(=O)N[C@@H](CCCNC(=N)N)C(=O)NCC(=O)O)C(C)C [NO: 22],0.63 ± 0.0519 nM

# Same assay, conditions: CHO cell line stably expressing human GLP-1R; downstream cAMP signal, LANCE cAMP kit; read-out: GLP-1R EC50
row,Structure (SMILES),EC50
1,CC[C@H](NC(=O)[C@H](CCC(=O)O)NC(=O)[C@H](CC(C)C)NC(=O)[C@H](Cc1ccc(O)cc1)NC(=O)[C@H](CO)NC(=O)[C@H](CO)NC(=O)[C@@H](NC(=O)[C@H](CC(=O)O)NC(=O)[C@H](CO)NC(=O)[C@@H](NC(=O)[C@H](Cc1ccccc1)NC(=O)[C@@H](NC(=O)CNC(=O)[C@H](CCC(=O)O)NC(=O)[C@H](CC)NC(=O)[C@@H](N)Cc1c[nH]cn1)[C@@H](C)O)[C@@H](C)O)C(C)C)C(=O)N[C@@H](CCC(N)=O)C(=O)N[C@@H](C)C(=O)N[C@@H](C)C(=O)N[C@@H](CCCCNC(=O)COCCOCCNC(=O)COCCOCCNC(=O)CC[C@H](NC(=O)CCCCCCCCCCCCCCCCC(=O)O)C(=O)O)C(=O)N[C@@H](CCC(=O)O)C(=O)N[C@@H](Cc1ccccc1)C(=O)N[C@H](C(=O)N[C@@H](C)C(=O)N[C@@H](Cc1c[nH]c2ccccc12)C(=O)N[C@@H](CC(C)C)C(=O)N[C@H](C(=O)N[C@@H](CCCNC(=N)N)C(=O)NCC(=O)N[C@@H](CCCNC(=N)N)C(=O)NCC(=O)O)C(C)C)[C@@H](C)CC [NO: 7] (H-H[Abu]EGTFTSDVSSYLE[Abu]QAAK([AEEA-AEEA-γGlu-C18 diacid])EFIAWLVRGRG-OH),8.8 ± 1.41 nM
2,CC[C@@H](NC(=O)[C@H](CCC(=O)O)NC(=O)[C@H](CC(C)C)NC(=O)[C@H](Cc1ccc(O)cc1)NC(=O)[C@H](CO)NC(=O)[C@H](CO)NC(=O)[C@@H](NC(=O)[C@H](CC(=O)O)NC(=O)[C@H](CO)NC(=O)[C@@H](NC(=O)[C@H](Cc1ccccc1)NC(=O)[C@@H](NC(=O)CNC(=O)[C@H](CCC(=O)O)NC(=O)[C@@H](CC)NC(=O)[C@@H](N)Cc1c[nH]cn1)[C@@H](C)O)[C@@H](C)O)C(C)C)C(=O)N[C@@H](CCC(N)=O)C(=O)N[C@@H](C)C(=O)N[C@@H](C)C(=O)N[C@@H](CCCCNC(=O)COCCOCCNC(=O)COCCOCCNC(=O)CC[C@H](NC(=O)CCCCCCCCCCCCCCCCC(=O)O)C(=O)O)C(=O)N[C@@H](CCC(=O)O)C(=O)N[C@@H](Cc1ccccc1)C(=O)N[C@H](C(=O)N[C@@H](C)C(=O)N[C@@H](Cc1c[nH]c2ccccc12)C(=O)N[C@@H](CC(C)C)C(=O)N[C@H](C(=O)N[C@@H](CCCNC(=N)N)C(=O)NCC(=O)N[C@@H](CCCNC(=N)N)C(=O)NCC(=O)O)C(C)C)[C@@H](C)CC [NO: 9] (H-H[dAbu]EGTFTSDVSSYLE[dAbu]QAAK([AEEA-AEEA-γGlu-C18 diacid])EFIAWLVRGRG-OH),0.675 ± 0.067 nM
